Assay results from ChEMBL document CHEMBL1152477, “Evaluation of substrate and inhibitor properties of a novel MDR modulator H17 towards transmembrane efflux pumps” (Eur J Med Chem, 2009).

Columns and labels:
[1] = species: Rattus norvegicus; assay: Inhibition of P-glycoprotein in White Wistar rat jejunum assessed as permeability at 30 uM after 30 mins by HPLC analysis; format: tissue-based
[2] = species: Rattus norvegicus; assay: Inhibition of P-glycoprotein in White Wistar rat ileum assessed as permeability at 30 uM after 30 mins by HPLC analysis; format: tissue-based
[3] = species: Rattus norvegicus; assay: Inhibition of P-glycoprotein in White Wistar rat colon assessed as permeability at 30 uM after 30 mins by HPLC analysis
[4] = target: T1, Multidrug resistance-associated protein 1 (Rattus norvegicus, UniProt Q8CG09); assay: Inhibition of MRP1/MRP2 in White Wistar rat jejunum assessed as increase in drug uptake at 1 mM after 30 mins by HPLC analysis; format: tissue-based; conditions: 0.5 h, 1000 µM
[5] = target: T1, Multidrug resistance-associated protein 1; assay: Inhibition of MRP1/MRP2 in White Wistar rat ileum assessed as increase in drug uptake at 1 mM after 30 mins by HPLC analysis; format: tissue-based; conditions: 0.5 h, 1000 µM
[6] = target: T1, Multidrug resistance-associated protein 1; assay: Inhibition of MRP1/MRP2 in White Wistar rat colon assessed as increase in drug uptake at 1 mM after 30 mins by HPLC analysis; conditions: 0.5 h, 1000 µM

T1 sequence (Q8CG09 whole entry): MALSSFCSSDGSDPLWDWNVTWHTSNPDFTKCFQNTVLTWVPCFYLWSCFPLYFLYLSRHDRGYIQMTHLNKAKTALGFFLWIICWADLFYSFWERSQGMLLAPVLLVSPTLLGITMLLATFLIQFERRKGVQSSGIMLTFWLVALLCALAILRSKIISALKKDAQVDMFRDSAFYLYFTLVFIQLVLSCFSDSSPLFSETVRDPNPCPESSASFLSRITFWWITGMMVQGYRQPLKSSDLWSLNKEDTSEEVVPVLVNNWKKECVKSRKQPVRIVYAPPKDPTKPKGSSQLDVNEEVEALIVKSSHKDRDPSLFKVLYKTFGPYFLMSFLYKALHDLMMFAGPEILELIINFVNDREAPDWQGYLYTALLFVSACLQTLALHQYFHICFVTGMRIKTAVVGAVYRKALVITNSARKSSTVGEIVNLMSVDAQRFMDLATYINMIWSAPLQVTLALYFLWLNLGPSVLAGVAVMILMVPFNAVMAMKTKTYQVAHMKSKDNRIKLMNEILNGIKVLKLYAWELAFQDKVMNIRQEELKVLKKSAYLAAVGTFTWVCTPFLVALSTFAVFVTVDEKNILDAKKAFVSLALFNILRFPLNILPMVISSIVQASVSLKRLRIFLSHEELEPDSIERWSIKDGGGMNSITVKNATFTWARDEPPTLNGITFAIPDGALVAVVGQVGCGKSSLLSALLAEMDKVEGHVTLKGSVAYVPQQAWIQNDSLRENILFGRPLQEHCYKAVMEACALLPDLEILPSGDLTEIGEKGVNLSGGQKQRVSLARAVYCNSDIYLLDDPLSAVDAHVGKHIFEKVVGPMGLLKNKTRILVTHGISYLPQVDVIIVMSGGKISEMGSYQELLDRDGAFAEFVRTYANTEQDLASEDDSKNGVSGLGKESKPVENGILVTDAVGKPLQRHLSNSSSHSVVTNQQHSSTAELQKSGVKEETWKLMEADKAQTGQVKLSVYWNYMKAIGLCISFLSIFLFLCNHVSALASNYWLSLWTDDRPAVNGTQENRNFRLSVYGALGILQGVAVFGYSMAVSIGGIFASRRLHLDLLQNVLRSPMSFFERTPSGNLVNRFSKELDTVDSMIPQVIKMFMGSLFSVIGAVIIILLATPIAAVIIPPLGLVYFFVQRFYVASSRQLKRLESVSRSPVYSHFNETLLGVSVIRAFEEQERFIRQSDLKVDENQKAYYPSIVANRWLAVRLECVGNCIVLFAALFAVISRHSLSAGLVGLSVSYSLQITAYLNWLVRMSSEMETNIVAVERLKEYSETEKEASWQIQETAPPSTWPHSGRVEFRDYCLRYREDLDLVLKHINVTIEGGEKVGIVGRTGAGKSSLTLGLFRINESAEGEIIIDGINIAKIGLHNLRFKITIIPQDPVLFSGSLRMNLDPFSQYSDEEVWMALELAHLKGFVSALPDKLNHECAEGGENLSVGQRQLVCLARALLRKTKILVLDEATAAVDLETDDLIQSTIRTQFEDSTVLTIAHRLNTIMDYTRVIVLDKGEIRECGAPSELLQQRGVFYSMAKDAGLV

Row | SMILES | permeability [1] [×10⁻⁴ cm/s] | permeability [2] [×10⁻⁴ cm/s] | permeability [3] [×10⁻⁴ cm/s] | Drug uptake [4] [%] | Drug uptake [5] [%] | Drug uptake [6] [%]
1 | OCC12C3C4C1N(Cc1ccccc1)C1(CO)C(CO)(C4c4ccccc4)C(N3Cc3ccccc3)C1(CO)C2c1ccccc1 (stereo unspecified) | 2.36 | 2.4 | 2.05 |  |  | 
2 | COc1ccc2c(c1)c(CC(=O)O)c(C)n2C(=O)c1ccc(Cl)cc1 [INDOMETHACIN] |  |  |  | 24 | 13 | 13
